The test system of assay [1] is 2008 cell line (serous cystadenocarcinoma of the ovary). In words: Cell growth assay (crystal violet dye), 2008 cells. The class given is cell-based, human. The settings on record: Homo sapiens; 2008 cells, 72 hrs exposure; read-out: IC50 (cell growth inhibition). As to the method:
(§1) For the determination of the in vitro antitumour activities, the compounds of the invention were assayed in a panel of sensible, resistant and refractary tumour cell lines, which are only exemplary for the antitumour activity of the inventive compounds, and are not to be construed as limiting their antitumour activities only to the cell lines set forth herein. Cell lines. The 2008 cell line was established from a patient with serous cystadenocarcinoma of the ovary and the cDDP-resistant C13* subline, about 15-fold resistant to cDDP, was derived from the parent 2008 cell line by monthly exposure to cDDP, followed by chronic exposure to step-wise increases in cDDP concentration (Cancer Research 52, 1895, 1992). The cell lines were grown as monolayers in RPMI 1640 medium containing 10% heat-inactivated fetal bovine serum and 50 μg/mL gentamycin sulfate. All cell media and serum were purchased from (Lonza, Verviers, Belgium). Cultures were equilibrated with humidified 5% CO2 in air at 37° C. All studies were performed in Mycoplasma negative cells, as routinely determined with the MycoAlert Mycoplasma detection kit (Lonza, Walkersville, Md., USA).
(§2) Cell growth assay. Cell growth was determined by a modification of the crystal violet dye assay (Analytical biochemistry, 182, 16 1989). On selected days, after removal of the tissue culture medium, the cell monolayer was fixed with methanol prior to staining with 0.2% crystal violet solution in 20% methanol for at least 30 minutes. After washing several times with distilled water to remove the dye excess, the cells were let to dry. The incorporated dye was solubilized in acidic isopropanol (1N HCl : 2-propanol, 1:10). After appropriate dilution, dye was determined spectrophotometrically at 540 nm. The extracted dye was proportional to cell number. Percentage of cytotoxicity was calculated by comparing the absorbance of cultures exposed to the compounds of the invention to non-exposed (control) cultures. Percentage of cytotoxicity is here reported as the half maximal inhibitory concentration (IC50), which is a measure of the effectiveness of a compound of the invention in inhibiting cell growth by half with respect to control (100%).

A further assay concerns HeLa cells. Nature of the assay: Cell proliferation MTT assay, HeLa. The format is cell-based. The settings on record: Homo sapiens, 24 h, read-out: MTT cell proliferation, percentage compared to control cells considered as 100%; for activity at 1 µM: compound at 1 uM; for activity at 10 µM: compound at 10 uM. As for the experimental part:
(§3) Cell cultures and treatments. Human tumor cells (HeLa from uterin cervix and HCT116 from colon carcinoma) were grown at 37° C. in humidified atmosphere containing 5% CO2 in D-MEM supplemented with 10% FCS, 4 mM glutamine, 2 mM Na pyruvate, 100 U/mL penicillin and 0.1 mg/mL streptomycin (all reagents were from Celbio, Pero, Italy). HeLa cells are the most widely used human tumor cell line; HCT 116 colon carcinoma cell line has proven to be extremely resistant to conventional chemotherapy. Cells were treated with the compounds of the invention at a fixed dose of 10 uM for 24 h, eventually followed by 24 of recovery in drug free medium. As a positive control of growth inhibition, cells were treated with 10 uM etoposide. Some of the inventive were also assayed at a dose of 1 uM.
(§4) Cell proliferation assays—MTT assay. Cells are seeded in 96 multiwell-plates at the density of 10^3/100 μl (except fibroblasts that are seeded at the density of 1.5×10^3/100 μl). Cells are treated 24 h later with the drug for 24 h eventually followed by 24 h of recovery in drug-free medium. At the end of the treatments, 20 μl of CellTiter 96 Non-Radioactive Cell Proliferation Assay (MTT; Promega, Milano, Italy) are added to each well. Plates are then incubated for 4 h at 37° C. in the dark and analyzed with a reader of microplates (Gio. De Vita, Roma, Italy) at 492 nm. Experiments are performed in quadruplicate and repeated three times. Data are expressed in the following Tables 2a-c as the percentage compared to control cells considered as 100%.

The subject of assay [2] is cisplatin resistant A2780 cells (A2780/CP). Nature of the assay: Cell growth assay (crystal violet dye), A2780/CP cells. The class given is cell-based, human. The settings on record: Homo sapiens, A2780C/P, 72 hrs exposure, read-out: IC50 (cell growth inhibition). As to the method: (§5) The human ovarian cancer cell line A2780 and a platinum-resistant subline selected in vitro by stepwise increases of cisplatin concentration in the medium were from University of Modena and Reggio Emilia. The cisplatin resistant A2780 cells were challenged weekly with 50 uM cisplatin for 1 hr. Both cell lines were maintained in RPMI 1640 medium with 10% (vol/vol) fetal calf serum, penicillin (62.9 mg/L), and streptomycin (100 mg/L) (GIBCO).
as §2

The test system of assay [3] is cDDP-resistant C13* subline. In words: Cell growth assay (crystal violet dye), C13* cells. The class given is cell-based, human. Conditions: Homo sapiens; C13* cells, 72 hrs exposure; read-out: IC50 (cell growth inhibition). As for the experimental part: as §1, §2
The test system of assay [4] is human ovarian cancer cell line A2780. Nature of the assay: Cell growth assay (crystal violet dye), A2780 cells. The format is cell-based. The settings on record: Homo sapiens, 72 hrs exposure, read-out: IC50 (cell growth inhibition). As to the method:
as §5, §2

Assay [5] relates to HCT 116 colon carcinoma cell line. Nature of the assay: Cell proliferation MTT assay, HCT 116. The class given is cell-based. Conditions: Homo sapiens, HCT-116, 24 h, read-out: MTT cell proliferation, percentage compared to control cells considered as 100%; for activity at 10 µM: HCT 116, compound at 10 uM. As to the method: as §3, §4
The subject of another assay is tumour cell lines. Nature of the assay: In vitro antitumour activity, panel of tumour cell lines (statement in words). The settings on record: compared with the novel compounds / prior art protoberberines. The format is cell-based, human. As to the method:
as §1

Where [6] appears, read: 24 h + 24 h recovery in drug-free medium.

Read-outs that look alike come from different tables or passages of the source.

The IC50 is the concentration that gives 50% inhibition. For `COc1ccc2c(Cc3ccccc3)c3[n+](cc2c1OC)CCc1cc2c(cc1-3)OCO2.[I-]` [Comp Ex, 13-benzyl-9,10-dimethoxy-5,6-dihydrobenzo[g]-1,3-benzodioxolo[5,6-a]quinolizinium iodide, reference compound], the IC50 came to 9.2 µM in assay [1], 3.3 µM in assay [2], 5 µM in assay [3] and 2.5 µM in assay [4]. For the same compound, the activity at 1 µM in the assay with HeLa cells (setting [6]) was found to be 93.6%; in the assay with HeLa cells it was 139%; in assay [5] (HCT 116, compound at 1 uM, 24 h exposure), 119%. For the same compound, the activity at 10 µM with HeLa cells (setting [6]) is 74.5%; with HeLa cells it was 98%; in assay [5] (setting [6]) it was 22.2%; in assay [5] (24 h), 20.4%. Also, in the assay with tumour cell lines, the “antitumour activity (in words)” value was “much lower antitumour activity”.

(Values after patent publication US8188109B2, “Benzoquinolizinium salt derivatives as anticancer agents” (Naxospharma S.r.l., priority 2009, dated 2012).)
